Measured values reported in ChEMBL document CHEMBL4177748, “Synthesis, structure-activity relationships, and mechanistic studies of 5-arylazo-tropolone derivatives as novel xanthine oxidase (XO) inhibitors” (Bioorg Med Chem, 2018).
pIC50: −log10 of the molar value.

target: Xanthine dehydrogenase/oxidase (Bos taurus, UniProt P80457); experiment: Inhibition of bovine milk xanthine oxidase using xanthine as substrate pretreated for 15 mins followed by substrate addition measured after 8 mins; conditions: not given
Sequence (P80457 whole entry): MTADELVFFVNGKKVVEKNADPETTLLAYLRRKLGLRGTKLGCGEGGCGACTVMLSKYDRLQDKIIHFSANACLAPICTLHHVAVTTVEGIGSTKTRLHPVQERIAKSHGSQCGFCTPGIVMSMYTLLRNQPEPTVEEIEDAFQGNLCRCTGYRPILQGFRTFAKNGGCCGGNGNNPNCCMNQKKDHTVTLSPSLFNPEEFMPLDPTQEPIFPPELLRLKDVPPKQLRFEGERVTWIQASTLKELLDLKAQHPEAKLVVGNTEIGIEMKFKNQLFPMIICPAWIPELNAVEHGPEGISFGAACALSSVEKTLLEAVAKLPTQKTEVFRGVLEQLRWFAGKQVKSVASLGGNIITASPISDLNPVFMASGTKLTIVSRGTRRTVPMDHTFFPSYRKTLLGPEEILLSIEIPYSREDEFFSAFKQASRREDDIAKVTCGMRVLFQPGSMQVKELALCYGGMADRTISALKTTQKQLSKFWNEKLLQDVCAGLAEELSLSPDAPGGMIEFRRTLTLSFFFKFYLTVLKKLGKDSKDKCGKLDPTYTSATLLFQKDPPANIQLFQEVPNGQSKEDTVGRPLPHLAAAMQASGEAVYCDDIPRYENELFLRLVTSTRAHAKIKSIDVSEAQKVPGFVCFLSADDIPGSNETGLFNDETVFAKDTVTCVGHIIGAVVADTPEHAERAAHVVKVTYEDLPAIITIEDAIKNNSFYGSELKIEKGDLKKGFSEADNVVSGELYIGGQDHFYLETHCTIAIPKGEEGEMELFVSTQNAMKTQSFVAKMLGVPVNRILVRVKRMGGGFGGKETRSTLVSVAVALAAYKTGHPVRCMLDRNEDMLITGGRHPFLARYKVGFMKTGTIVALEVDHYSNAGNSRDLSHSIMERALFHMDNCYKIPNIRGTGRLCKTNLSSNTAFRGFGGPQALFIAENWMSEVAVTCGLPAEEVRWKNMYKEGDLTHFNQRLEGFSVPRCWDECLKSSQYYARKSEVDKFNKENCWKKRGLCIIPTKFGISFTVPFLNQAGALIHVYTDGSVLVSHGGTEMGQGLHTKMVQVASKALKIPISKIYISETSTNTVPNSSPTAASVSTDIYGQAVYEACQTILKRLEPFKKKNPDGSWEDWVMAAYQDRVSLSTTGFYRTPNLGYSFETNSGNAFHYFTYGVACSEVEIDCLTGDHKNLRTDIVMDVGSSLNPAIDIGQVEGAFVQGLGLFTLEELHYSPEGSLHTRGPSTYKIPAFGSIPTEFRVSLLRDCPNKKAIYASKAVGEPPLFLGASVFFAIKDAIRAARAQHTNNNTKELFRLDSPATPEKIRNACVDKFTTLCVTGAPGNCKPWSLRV

Row | SMILES | IC50
1 | Cc1cccc(/N=N/c2ccc(O)c(=O)cc2)c1 | Not Active
2 | O=c1ccc(/N=N/c2cccc(Br)c2)ccc1O | Not Active
3 | O=c1ccc(/N=N/c2ccc(F)cc2)ccc1O | Not Active
4 | Cc1ccc(Br)cc1/N=N/c1ccc(O)c(=O)cc1 | Not Active
5 | COc1ccc(/N=N/c2cc(C(F)(F)F)cc(C(F)(F)F)c2)ccc1=O | Not Active
6 | Cc1cc(C)cc(/N=N/c2ccc(O)c(=O)cc2)c1 | Not Active
7 | O=c1ccc(/N=N/c2cccc(I)c2)ccc1O | Not Active
8 | CCOC(=O)c1ccc(/N=N/c2ccc(O)c(=O)cc2)cc1 | Not Active

same assay, conditions: read-out: IC50

Row | SMILES | pIC50
9 | O=c1ccc(/N=N/c2cccc(F)c2)ccc1O | 5.05
10 | COC(=O)c1cccc(/N=N/c2ccc(O)c(=O)cc2)c1 | 4.10
11 | O=c1ccc(/N=N/c2cccc(Cl)c2)ccc1O | 4.77
12 | COc1cc(/N=N/c2ccc(O)c(=O)cc2)cc(OC)c1OC | 4.24
13 | O=c1ccc(/N=N/c2cccc(C(F)(F)F)c2)ccc1O | 5.13
14 | COc1cccc(/N=N/c2ccc(O)c(=O)cc2)c1 | 4.35
15 | Cc1c(/N=N/c2ccc(O)c(=O)cc2)cccc1[N+](=O)[O-] | 4.64
